Results as given in ChEMBL document CHEMBL1130350, “Heteroaryl analogues of AMPA. Synthesis and quantitative structure-activity relationships” (J Med Chem, 1997).

Tests used:
[1] = pKa value determined by potentiometric titrations. 4.4 is the equivalence volume; initial titrant volume is 9.8; format: physicochemical
[2] = biological target: Glutamate receptor ionotropic AMPA (Rattus norvegicus)
[3] = species on record: Rattus norvegicus; assay: Electrophysiological study in rat cortical slice model; format: functional
[4] = biological target: Glutamate [NMDA] receptor; assay: In vitro binding affinity against N-methyl-D-aspartate glutamate receptor using [3H]-[…] as radioligand; format: protein-complex assay
[5] = biological target: Glutamate receptor ionotropic kainate
Description: In vitro binding affinity against Ionotropic glutamate receptor kainate (kainic acid) using [3H]KAIN as radioligand

[6] = pKa value determined by potentiometric titrations. 5.1 is the equivalence volume; initial titrant volume is 9.4; format: physicochemical
[7] = pKa value determined by potentiometric titrations. 4.6 is the equivalence volume; initial titrant volume is 10.2; format: physicochemical
[8] = pKa value determined by potentiometric titrations. 4.5 is the equivalence volume; initial titrant volume is 9.5; format: physicochemical
[9] = pKa value determined by potentiometric titrations. 4.6 is the equivalence volume; initial titrant volume is 9.5; format: physicochemical
[10] = pKa value determined by potentiometric titrations. 5 is the equivalence volume; initial titrant volume is 9.6; format: physicochemical
[11] = pKa value determined by potentiometric titrations. 5 is the equivalence volume; initial titrant volume is 9.7; format: physicochemical
[12] = pKa value determined by potentiometric titrations. 4.9 is the equivalence volume; initial titrant volume is 9.7; format: physicochemical
[13] = pKa value determined by potentiometric titrations. 5.3 is the equivalence volume; initial titrant volume is 9.8; format: physicochemical

| SMILES | pKa [1] | IC50 [2] | EC50 [3] | IC50 [4] | IC50 [5] | pKa [6] | pKa [7] | pKa [8] | pKa [9] | pKa [10] | pKa [11] | pKa [12] | pKa [13] |
| --- | --- | --- | --- | --- | --- | --- | --- | --- | --- | --- | --- | --- | --- |
| NC(Cc1c(O)noc1-c1nccs1)C(=O)O (stereo unspecified) | < 2 | 0.094 µM | 2.3 µM | > 100 µM | 4.9 µM | – | – | – | – | – | – | – | – |
| Cn1nnnc1-c1onc(O)c1CC(N)C(=O)O (stereo unspecified) | – | 54 µM | > 1000 µM | > 100 µM | > 100 µM | 3.7 | – | – | – | – | – | – | – |
| NC(Cc1c(O)noc1-c1nc[nH]n1)C(=O)O (stereo unspecified) | – | 1.5 µM | 63 µM | > 100 µM | 58 µM | – | < 2.4 | – | – | – | – | – | – |
| Cn1ncnc1-c1onc(O)c1CC(N)C(=O)O (stereo unspecified) | – | 5.8 µM | 93 µM | > 100 µM | 16 µM | – | – | < 2.3 | – | – | – | – | – |
| Cn1cnc(-c2onc(O)c2CC(N)C(=O)O)n1 (stereo unspecified) | – | 0.7 µM | 11 µM | > 100 µM | > 100 µM | – | – | – | < 2.3 | – | – | – | – |
| Cn1nnc(-c2onc(O)c2CC(N)C(=O)O)n1 (stereo unspecified) | – | – | 0.92 µM | > 100 µM | 41 µM | – | – | – | – | 2.9 | – | – | – |
| NC(Cc1c(O)noc1-c1nn[nH]n1)C(=O)O (stereo unspecified) | – | 72 µM | > 1000 µM | > 100 µM | > 100 µM | – | – | – | – | – | < 3 | – | – |
| NC(Cc1c(O)noc1-c1ncc[nH]1)C(=O)O (stereo unspecified) | – | 48 µM | 550 µM | > 100 µM | > 100 µM | – | – | – | – | – | – | < 3.4 | – |
| Cn1ccnc1-c1onc(O)c1CC(N)C(=O)O (stereo unspecified) | – | > 100 µM | > 1000 µM | > 100 µM | 74 µM | – | – | – | – | – | – | – | < 3.4 |
| Cc1onc(O)c1CC(N)C(=O)O [(R,S)-AMPA] | – | – | 5.4 µM | > 100 µM | – | – | – | – | – | – | – | – | – |
